The molecules below were run on HCV replicon RNA replication in human Huh7 hepatoma cells (assay: HCV replicon assay (activity levels from either or both of HCV replicon assay 1, Huh7/Clone A RT-qPCR, and assay 2, Huh7 ET luc-ubi-neo/ET)). Settings: Hepatitis C virus, Huh-7, either or both HCV replicon assays: Huh7/Clone A, 48 hours, 72 hours, Luc activity or RT-PCR, read-out: inhibit HCV replication at IC50 levels or estimated IC50 levels.
Assay type: cell-based, Hepatitis C virus (HCV)
How it was run: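 Huh7/Clone A subgenomic replicon cells treated 48 h at 37° C. with 7 serial dilutions in triplicate (0.5% DMSO final). Replicon RNA measured by TaqMan RT-qPCR on the neo gene, normalized to RiboGreen total RNA; untreated cells set as 100% for IC50.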
`CC(C)(C)c1ccc(Cn2cc(-c3noc(Cc4ccccc4)n3)c(=O)c3cc(F)c(N4CCCNCC4)cc32)cc1` [Compound 102, 3-(5-benzyl-[1,2,4]oxadiazol-3-yl)-1-(4-tert-butyl-benzyl)-7-[1,4]diazepan-1-yl-6-fluoro-1H-quinolin-4-one] was tested, and the IC50 was < 2000 nM. In the case of `CN1CCCN(c2nc3c(cc2F)c(=O)c(-c2noc(C(C)(C)c4ccccc4)n2)cn3Cc2ccc(C(F)(F)F)cc2)CC1` [Compound 103, 6-fluoro-7-(4-methyl-[1,4]diazepan-1-yl)-3-[5-(1-methyl-1-phenyl-ethyl)-[1,2,4]oxadiazol-3-yl]-1-(4-trifluoromethyl-benzyl)-1H-[1,8]naphthyridin-4-one], the IC50 is reported as < 2000 nM. For `O=C(O)c1cn(-c2cc3c(cc2F)c(=O)c(-c2noc(Cc4ccccc4)n2)cn3Cc2ccc(C(F)(F)F)cc2F)cn1` [Compound 104, 1-(3-(5-benzyl-1,2,4-oxadiazol-3-yl)-6-fluoro-1-(2-fluoro-4-(trifluoromethyl)benzyl)-4-oxo-1,4-dihydroquinolin-7-yl)-1H-imidazole-4-carboxylic acid], the IC50 was > 10000 nM. `NC(=O)Cc1ccc2c(c1)c(=O)c(-c1noc(Cc3ccccc3)n1)cn2Cc1ccc(C(F)(F)F)cc1F` [Compound 105, 2-(3-(5-benzyl-1,2,4-oxadiazol-3-yl)-1-(2-fluoro-4-(trifluoromethyl)benzyl)-4-oxo-1,4-dihydroquinolin-6-yl)acetamide] was tested, and the IC50 was > 10000 nM. With `CC(c1ccc(C(F)(F)F)cc1)n1cc(-c2noc(C(C)(C)c3ccc(F)cc3)n2)c(=O)c2cc(F)c(N3CCOCC3)cc21` (centres unmarked) [Compound 109, 6-fluoro-3-(5-(2-(4-fluorophenyl)propan-2-yl)-1,2,4-oxadiazol-3-yl)-7-morpholino-1-(1-(4-(trifluoromethyl)phenyl)ethyl)quinolin-4(1H)-one] the IC50 was < 2000 nM. With `CC(C)(c1ccc(F)cc1)c1nc(-c2cn(Cc3ccc(C(F)(F)F)cc3)c3cc(N4CCNC(=O)C4)c(F)cc3c2=O)no1` [Compound 125, 6-fluoro-3-(5-(2-(4-fluorophenyl)propan-2-yl)-1,2,4-oxadiazol-3-yl)-7-(3-oxopiperazin-1-yl)-1-(4-(trifluoromethyl)benzyl)quinolin-4(1H)-one] the IC50 was < 500 nM. `CC(C)(c1ccccc1)c1nc(-c2cn(Cc3ccc(C(F)(F)F)cc3)c3cc(N4CCNC(=O)C4)c(F)cc3c2=O)no1` [Compound 126, 6-fluoro-7-(3-oxopiperazin-1-yl)-3-(5-(2-phenylpropan-2-yl)-1,2,4-oxadiazol-3-yl)-1-(4-(trifluoromethyl)benzyl)quinolin-4(1H)-one] was tested, and the IC50 was < 500 nM. For `CC(C)(c1ccc(Cl)cc1)c1nc(-c2cn(Cc3ccc(C(F)(F)F)cc3)c3cc(N4CCS(=O)(=O)CC4)c(F)cc3c2=O)no1` [Compound 127, 3-(5-(2-(4-chlorophenyl)propan-2-yl)-1,2,4-oxadiazol-3-yl)-6-fluoro-7-dioxo-thiomorpholino-1-(4-(trifluoromethyl)benzyl)quinolin-4(1H)-one], the IC50 was < 10000 nM. For `CC(C)(c1ccccc1)c1nc(-c2cn(Cc3ccc(C(F)(F)F)cc3)c3cc(N4CC[S+]([O-])CC4)c(F)cc3c2=O)no1` [Compound 129], the IC50 was < 500 nM. `COc1ccc(Cn2cc(-c3noc(C(C)(C)c4ccc(F)cc4)n3)c(=O)c3cc(F)c(N4CCOCC4)cc32)cc1` [Compound 130, 6-fluoro-3-(5-(2-(4-fluorophenyl)propan-2-yl)-1,2,4-oxadiazol-3-yl)-1-(4-methoxybenzyl)-7-morpholinoquinolin-4(1H)-one] was tested, and the IC50 was < 2000 nM. For `C[C@@H]1CN(c2cc3c(cc2F)c(=O)c(-c2noc(C(C)(C)c4ccccc4)n2)cn3Cc2ccc(C(F)(F)F)cc2)C[C@H](C)N1` [Compound 131, 7-((3S,5R)-3,5-dimethylpiperazin-1-yl)-6-fluoro-3-(5-(2-phenylpropan-2-yl)-1,2,4-oxadiazol-3-yl)-1-(4-(trifluoromethyl)benzyl)quinolin-4(1H)-one], the IC50 was < 500 nM.
